Results reported in ChEMBL document CHEMBL4311992, “Discovery of 3-(((9H-purin-6-yl)amino)methyl)-4,6-dimethylpyridin-2(1H)-one derivatives as novel tubulin polymerization inhibitors for treatment of cancer” (Eur J Med Chem, 2019).
Activity calls are given as the source filed them. The calls are words filed in the database; no cut-off is given here.

Tests used:
[1] = biological target: Dual specificity tyrosine-phosphorylation-regulated kinase 1B (Homo sapiens) (UniProt Q9Y463); assay: Inhibition of recombinant full-length human DYRK1B assessed as residual activity at 10 uM using RRRFRPASPLRGPPK as substrate measured after 40 mins in presence of [gamma33P]ATP by scintillation counting method
[2] = biological target: Ribosomal protein S6 kinase alpha-4 (Homo sapiens) (UniProt O75676); assay: Inhibition of recombinant human MSK2 (2 to end residues) assessed as residual activity at 10 uM using GRPRTSSFAEGKK as substrate measured after 40 mins in presence of [gamma33P]ATP by scintillation counting method
Chain of Ribosomal protein S6 kinase alpha-4 (Homo sapiens) (O75676 whole entry, looked up): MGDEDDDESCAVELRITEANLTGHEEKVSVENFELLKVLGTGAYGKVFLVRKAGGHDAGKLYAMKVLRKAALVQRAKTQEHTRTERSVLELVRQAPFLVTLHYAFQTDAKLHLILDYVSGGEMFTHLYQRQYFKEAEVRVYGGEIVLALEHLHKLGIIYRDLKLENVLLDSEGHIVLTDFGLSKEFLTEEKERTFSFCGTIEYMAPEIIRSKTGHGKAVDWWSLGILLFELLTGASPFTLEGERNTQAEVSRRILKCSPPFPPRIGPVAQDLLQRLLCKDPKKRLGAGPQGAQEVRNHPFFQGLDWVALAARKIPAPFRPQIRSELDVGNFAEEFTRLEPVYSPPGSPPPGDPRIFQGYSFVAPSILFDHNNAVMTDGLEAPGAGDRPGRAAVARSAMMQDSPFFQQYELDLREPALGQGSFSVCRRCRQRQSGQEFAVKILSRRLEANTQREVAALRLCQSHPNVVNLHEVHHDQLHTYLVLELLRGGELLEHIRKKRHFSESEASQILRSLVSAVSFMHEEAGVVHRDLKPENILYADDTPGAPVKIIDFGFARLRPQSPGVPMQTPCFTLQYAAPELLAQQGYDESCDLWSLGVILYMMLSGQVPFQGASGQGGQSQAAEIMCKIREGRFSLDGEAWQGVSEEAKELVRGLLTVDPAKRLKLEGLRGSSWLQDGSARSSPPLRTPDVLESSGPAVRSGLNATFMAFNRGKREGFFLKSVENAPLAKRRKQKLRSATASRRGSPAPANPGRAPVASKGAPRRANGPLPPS

[3] = tested on: HCT-116; assay: Induction of apoptosis in human HCT116 cells assessed as necrotic cells at 100 nM measured after 48 hrs by Annexin V-FITC/propidium iodide staining-based flow cytometry (reference value: 1.16%); type: functional
[4] = biological target: Ribosomal protein S6 kinase alpha-5 (Homo sapiens) (UniProt O75582); assay: Inhibition of recombinant human MSK1 (2 to end residues) assessed as residual activity at 10 uM using GRPRTSSFAEGKK as substrate measured after 40 mins in presence of [gamma33P]ATP by scintillation counting method
Chain of Ribosomal protein S6 kinase alpha-5 (Homo sapiens) (O75582 whole entry, looked up): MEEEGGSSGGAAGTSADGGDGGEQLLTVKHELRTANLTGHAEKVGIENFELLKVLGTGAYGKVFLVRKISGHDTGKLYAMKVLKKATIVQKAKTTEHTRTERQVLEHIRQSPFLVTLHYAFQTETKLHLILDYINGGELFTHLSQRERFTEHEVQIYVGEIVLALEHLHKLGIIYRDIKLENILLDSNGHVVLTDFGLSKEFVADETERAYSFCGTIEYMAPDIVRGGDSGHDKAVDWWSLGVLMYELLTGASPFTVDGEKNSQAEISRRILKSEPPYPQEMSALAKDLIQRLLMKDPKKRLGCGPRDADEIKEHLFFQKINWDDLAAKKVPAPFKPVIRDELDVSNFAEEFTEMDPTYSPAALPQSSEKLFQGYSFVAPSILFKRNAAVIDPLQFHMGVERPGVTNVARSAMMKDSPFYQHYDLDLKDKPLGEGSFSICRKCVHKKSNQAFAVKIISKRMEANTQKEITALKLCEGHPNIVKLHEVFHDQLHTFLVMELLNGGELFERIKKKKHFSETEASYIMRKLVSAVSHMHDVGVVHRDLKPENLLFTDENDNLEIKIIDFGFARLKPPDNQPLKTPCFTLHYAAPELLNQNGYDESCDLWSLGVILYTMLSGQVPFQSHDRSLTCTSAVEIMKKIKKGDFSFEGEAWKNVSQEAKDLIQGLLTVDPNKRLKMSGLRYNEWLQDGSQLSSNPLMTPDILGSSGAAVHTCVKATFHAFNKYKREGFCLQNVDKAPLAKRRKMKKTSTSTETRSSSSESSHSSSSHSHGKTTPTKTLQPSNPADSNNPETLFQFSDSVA

[5] = tested on: SW-620; assay: Induction of apoptosis in human SW620 cells assessed as decrease in Bcl2 expression up to 200 nM measured after 48 hrs by Western blot analysis; type: functional, cell-based
[6] = tested on: HCT-116; assay: Induction of apoptosis in human HCT116 cells assessed as viable cells at 100 nM measured after 48 hrs by Annexin V-FITC/propidium iodide staining-based flow cytometry (reference value: 94.5%); type: functional; conditions: HCT-116, 48 h, read-out: Activity
[7] = biological target: Macrophage colony-stimulating factor 1 receptor (Homo sapiens) (UniProt P07333); assay: Inhibition of recombinant human FMS (538 to end residues) assessed as residual activity at 10 uM using KKKSPGEYVNIEFG as substrate measured after 40 mins in presence of [gamma33P]ATP by scintillation counting method
[8] = biological target: Calcium/calmodulin-dependent protein kinase type 1D (Homo sapiens) (UniProt Q8IU85); assay: Inhibition of recombinant full-length human CaMK1delta assessed as residual activity at 10 uM using calmodulin as substrate measured after 40 mins in presence of [gamma33P]ATP by scintillation counting method
[9] = biological target: Serine/threonine-protein kinase PAK 5 (Homo sapiens) (UniProt Q9P286); assay: Inhibition of recombinant human PAK5 (425 to end residues) assessed as residual activity at 10 uM using RRRLSFAEPG as substrate measured after 40 mins in presence of [gamma33P]ATP by scintillation counting method
[10] = biological target: Homeodomain-interacting protein kinase 4 (Homo sapiens) (UniProt Q8NE63); assay: Inhibition of recombinant full-length human HIPK4 assessed as residual activity at 10 uM using RRRFRPASPLRGPPK as substrate measured after 40 mins in presence of [gamma33P]ATP by scintillation counting method
Chain of Homeodomain-interacting protein kinase 4 (Homo sapiens) (Q8NE63 whole entry): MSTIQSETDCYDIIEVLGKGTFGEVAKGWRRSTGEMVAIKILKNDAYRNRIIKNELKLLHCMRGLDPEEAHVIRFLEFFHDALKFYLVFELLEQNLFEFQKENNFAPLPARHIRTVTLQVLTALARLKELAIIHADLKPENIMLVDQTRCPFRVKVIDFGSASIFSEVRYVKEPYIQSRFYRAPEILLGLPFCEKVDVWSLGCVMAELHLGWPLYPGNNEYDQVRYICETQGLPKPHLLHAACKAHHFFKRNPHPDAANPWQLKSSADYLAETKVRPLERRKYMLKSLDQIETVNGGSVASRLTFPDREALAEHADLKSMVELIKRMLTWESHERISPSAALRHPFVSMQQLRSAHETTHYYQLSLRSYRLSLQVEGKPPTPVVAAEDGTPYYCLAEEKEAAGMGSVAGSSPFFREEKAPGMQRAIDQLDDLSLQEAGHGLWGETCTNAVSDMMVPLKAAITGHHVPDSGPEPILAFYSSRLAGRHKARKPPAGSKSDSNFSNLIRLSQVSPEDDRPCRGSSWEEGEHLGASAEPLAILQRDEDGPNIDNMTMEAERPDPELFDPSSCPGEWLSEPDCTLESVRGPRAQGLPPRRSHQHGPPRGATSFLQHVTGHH

[11] = biological target: Proto-oncogene tyrosine-protein kinase receptor Ret (Homo sapiens) (UniProt P07949); assay: Inhibition of human Ret (658 to end residues) using KKKSPGEYVNIEFG as substrate measured after 40 mins in presence of [gamma33P]ATP by scintillation counting method; parameters: scale not given: the % may be the effect or the level left
[12] = biological target: Tyrosine-protein kinase Srms (Homo sapiens) (UniProt Q9H3Y6); assay: Inhibition of human SRMS assessed as residual activity at 10 uM by radiometric method
Chain of Tyrosine-protein kinase Srms (Homo sapiens) (Q9H3Y6 whole entry): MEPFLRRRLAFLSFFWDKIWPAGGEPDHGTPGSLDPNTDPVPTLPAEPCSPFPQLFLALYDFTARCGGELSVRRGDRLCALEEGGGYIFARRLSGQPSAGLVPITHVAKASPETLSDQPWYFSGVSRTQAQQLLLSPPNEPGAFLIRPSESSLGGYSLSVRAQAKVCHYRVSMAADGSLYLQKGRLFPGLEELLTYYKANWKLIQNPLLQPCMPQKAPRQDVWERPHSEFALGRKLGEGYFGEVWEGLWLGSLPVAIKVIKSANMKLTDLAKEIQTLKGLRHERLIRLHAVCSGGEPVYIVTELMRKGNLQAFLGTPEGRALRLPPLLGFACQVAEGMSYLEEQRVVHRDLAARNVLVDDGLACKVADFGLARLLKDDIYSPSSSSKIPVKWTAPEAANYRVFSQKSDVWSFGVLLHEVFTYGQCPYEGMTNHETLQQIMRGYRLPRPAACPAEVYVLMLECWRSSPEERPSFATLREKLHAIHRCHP

[13] = biological target: BMP-2-inducible protein kinase (Homo sapiens) (UniProt Q9NSY1); assay: Inhibition of recombinant human BIKepsilon assessed as residual activity at 10 uM using peptide substrate measured after 120 mins in presence of [gamma33P]ATP by scintillation counting method
[14] = tested on: Eukaryotic elongation factor 2 kinase (Homo sapiens), O00418 [H23R]; assay: Inhibition of recombinant human EEF2K H23R mutant (2 to end residues) assessed as residual activity at 10 uM using RKKFGESEKTKTKEFL as substrate measured after 40 mins in presence of [gamma33P]ATP by scintillation counting method
[15] = biological target: Serine/threonine-protein kinase PLK1 (Homo sapiens) (UniProt P53350); assay: Inhibition of recombinant full-length human Plk1 assessed as residual activity at 10 uM using casein as substrate measured after 40 mins in presence of [gamma33P]ATP by scintillation counting method
Chain of Serine/threonine-protein kinase PLK1 (Homo sapiens) (P53350 whole entry): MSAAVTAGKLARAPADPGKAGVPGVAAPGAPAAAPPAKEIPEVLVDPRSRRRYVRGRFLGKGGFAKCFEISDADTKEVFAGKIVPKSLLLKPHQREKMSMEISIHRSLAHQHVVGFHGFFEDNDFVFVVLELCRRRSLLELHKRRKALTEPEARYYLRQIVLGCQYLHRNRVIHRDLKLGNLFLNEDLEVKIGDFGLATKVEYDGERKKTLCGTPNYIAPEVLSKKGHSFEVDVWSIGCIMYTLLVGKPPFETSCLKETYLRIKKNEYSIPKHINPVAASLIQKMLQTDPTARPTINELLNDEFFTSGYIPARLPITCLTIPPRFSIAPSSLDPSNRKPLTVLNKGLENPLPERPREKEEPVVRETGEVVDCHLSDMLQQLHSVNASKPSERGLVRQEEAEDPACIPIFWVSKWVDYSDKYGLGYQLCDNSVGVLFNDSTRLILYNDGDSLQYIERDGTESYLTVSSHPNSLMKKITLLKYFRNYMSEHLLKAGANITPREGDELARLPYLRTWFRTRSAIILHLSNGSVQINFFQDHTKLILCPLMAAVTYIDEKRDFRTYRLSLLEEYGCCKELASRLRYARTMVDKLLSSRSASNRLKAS

[16] = biological target: Testis-specific serine/threonine-protein kinase 1 (Homo sapiens) (UniProt Q9BXA7); assay: Inhibition of recombinant full-length human TSSK1 assessed as residual activity at 10 uM using KKKVSRSGLYRSPSMPENLNRPR as substrate measured after 120 mins in presence of [gamma33P]ATP by scintillation counting method
Chain of Testis-specific serine/threonine-protein kinase 1 (Homo sapiens) (Q9BXA7 whole entry): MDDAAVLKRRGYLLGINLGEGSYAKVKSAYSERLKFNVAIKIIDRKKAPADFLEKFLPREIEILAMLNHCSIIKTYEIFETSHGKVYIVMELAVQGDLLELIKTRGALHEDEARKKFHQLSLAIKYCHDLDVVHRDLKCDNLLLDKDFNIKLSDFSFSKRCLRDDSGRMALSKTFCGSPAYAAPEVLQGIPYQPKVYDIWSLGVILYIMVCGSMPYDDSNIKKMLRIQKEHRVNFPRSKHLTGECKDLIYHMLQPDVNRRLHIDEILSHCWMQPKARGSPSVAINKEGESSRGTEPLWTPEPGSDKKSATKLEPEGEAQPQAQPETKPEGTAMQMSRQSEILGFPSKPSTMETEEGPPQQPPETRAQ

[17] = biological target: Serine/threonine-protein kinase DCLK3 (Homo sapiens) (UniProt Q9C098); assay: Inhibition of recombinant human DCAMKL3 (345 to end residues) assessed as residual activity at 10 uM using KKLNRTLSFAEPG as substrate measured after 40 mins in presence of [gamma33P]ATP by scintillation counting method
[18] = biological target: Calcium/calmodulin-dependent protein kinase type 1 (Homo sapiens) (UniProt Q14012); assay: Inhibition of recombinant human CaMK1 (2 to end residues) assessed as residual activity at 10 uM using […] as substrate measured after 40 mins in presence of [gamma33P]ATP by scintillation counting method
Chain of Calcium/calmodulin-dependent protein kinase type 1 (Homo sapiens) (Q14012 whole entry, looked up): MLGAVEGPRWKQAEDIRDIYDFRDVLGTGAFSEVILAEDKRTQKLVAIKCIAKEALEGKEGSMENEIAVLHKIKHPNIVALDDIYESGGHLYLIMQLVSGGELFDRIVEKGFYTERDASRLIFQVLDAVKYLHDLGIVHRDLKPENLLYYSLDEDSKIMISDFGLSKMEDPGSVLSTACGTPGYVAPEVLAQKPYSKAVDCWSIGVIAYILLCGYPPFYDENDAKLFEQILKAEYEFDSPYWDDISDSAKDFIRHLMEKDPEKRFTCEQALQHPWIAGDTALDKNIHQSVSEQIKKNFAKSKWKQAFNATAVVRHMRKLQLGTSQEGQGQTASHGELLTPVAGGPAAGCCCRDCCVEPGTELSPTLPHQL

[19] = tested on: SW-620; assay: Induction of apoptosis in human SW620 cells assessed as necrotic cells at 25 nM measured after 48 hrs by Annexin V-FITC/propidium iodide staining-based flow cytometry (reference value: 2.71%); type: functional
[20] = biological target: Cyclin-dependent kinase-like 4 (Homo sapiens) (UniProt Q5MAI5); assay: Inhibition of human CDKL4 assessed as residual activity at 10 uM by radiometric method
[21] = biological target: CDK4/Cyclin D3 (Homo sapiens) (UniProt P11802+P30281); assay: Inhibition of recombinant full-length human CDK4/cyclinD3 assessed as residual activity at 10 uM using Rb fragment as substrate measured after 40 mins in presence of [gamma33P]ATP by scintillation counting method; type: protein-complex assay
[22] = organism: Homo sapiens; assay: Inhibition of recombinant human PRAK R291E mutant assessed as residual activity at 10 uM using KKLRRTLSVA as substrate measured after 40 mins in presence of [gamma33P]ATP by scintillation counting method
[23] = tested on: HCT-116; assay: Induction of apoptosis in human HCT116 cells assessed as necrotic cells at 50 nM measured after 48 hrs by Annexin V-FITC/propidium iodide staining-based flow cytometry (reference value: 1.16%); type: functional
[24] = organism: Homo sapiens; assay: Inhibition of recombinant human Plk4 S34T mutant (1 to 273 residues) assessed as residual activity at 10 uM using casein as substrate measured after 40 mins in presence of [gamma33P]ATP by scintillation counting method
[25] = biological target: Protein kinase C beta type (Homo sapiens) (UniProt P05771); assay: Inhibition of recombinant human PKCbeta2 (2 to end residues) assessed as residual activity at 10 uM using histone H1 as substrate measured after 40 mins in presence of [gamma33P]ATP by scintillation counting method
Chain of Protein kinase C beta type (Homo sapiens) (P05771 2-671 limits assumed): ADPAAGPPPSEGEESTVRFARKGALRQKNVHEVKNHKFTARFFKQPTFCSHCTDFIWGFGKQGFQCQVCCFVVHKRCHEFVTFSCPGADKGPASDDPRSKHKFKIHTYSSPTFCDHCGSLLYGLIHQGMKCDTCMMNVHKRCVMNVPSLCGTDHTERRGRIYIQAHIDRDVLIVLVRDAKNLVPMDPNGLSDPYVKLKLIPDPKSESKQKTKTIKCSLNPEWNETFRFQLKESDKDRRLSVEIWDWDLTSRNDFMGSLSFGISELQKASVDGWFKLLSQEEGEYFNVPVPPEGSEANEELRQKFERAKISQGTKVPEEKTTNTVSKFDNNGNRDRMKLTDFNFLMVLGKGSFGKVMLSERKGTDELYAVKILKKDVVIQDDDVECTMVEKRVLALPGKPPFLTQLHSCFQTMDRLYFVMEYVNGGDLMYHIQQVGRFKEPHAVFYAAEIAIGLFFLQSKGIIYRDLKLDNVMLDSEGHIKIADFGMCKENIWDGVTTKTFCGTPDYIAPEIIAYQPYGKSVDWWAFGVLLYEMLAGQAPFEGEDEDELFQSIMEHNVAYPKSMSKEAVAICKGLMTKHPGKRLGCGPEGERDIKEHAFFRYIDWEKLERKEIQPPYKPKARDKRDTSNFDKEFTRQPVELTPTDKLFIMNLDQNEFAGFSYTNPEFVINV

Question: With `Cc1cc(C)c(CNc2nc(Cl)nc3c2ncn3C2CCCC2)c(=O)[nH]1` as the compound, how does the Activity [1] read?
Answer: The Activity was 100%.

Question: And the Activity [2]?
Answer: Its Activity is 120%.

Question: What about the Activity [3] of the same compound?
Answer: Its Activity is 5.57%.

Question: And the Activity [4]?
Answer: Its Activity is 112%.

Question: What about the Activity [5] of the same compound?
Answer: Its Activity is “Active”.

Question: What about the viability at 0.1 µM [6] of the same compound?
Answer: Its viability at 0.1 µM is 39%.

Question: What about the Activity [7] of the same compound?
Answer: Its Activity is 102%.

Question: And the Activity [8]?
Answer: The Activity was 107%.

Question: And the Activity [9]?
Answer: Its Activity is 110%.

Question: What about the Activity [10] of the same compound?
Answer: The Activity was 110%.

Question: And the Activity [11]?
Answer: The Activity was 100%.

Question: What about the Activity [12] of the same compound?
Answer: Its Activity is 108%.

Question: What about the Activity [13] of the same compound?
Answer: The Activity was 83%.

Question: What about the Activity [14] of the same compound?
Answer: The Activity was 104%.

Question: And the Activity [15]?
Answer: Its Activity is 112%.

Question: What about the Activity [16] of the same compound?
Answer: Its Activity is 110%.

Question: And the Activity [17]?
Answer: Its Activity is 110%.

Question: And the Activity [18]?
Answer: The Activity was 109%.

Question: And the Activity [19]?
Answer: Its Activity is 2.71%.

Question: What about the Activity [20] of the same compound?
Answer: The Activity was 116%.

Question: And the Activity [21]?
Answer: Its Activity is 91%.

Question: What about the Activity [22] of the same compound?
Answer: Its Activity is 125%.

Question: And the Activity [23]?
Answer: The Activity was 7.59%.

Question: What about the Activity [24] of the same compound?
Answer: Its Activity is 98.5%.

Question: What about the Activity [25] of the same compound?
Answer: Its Activity is 106%.
